From ChEMBL document CHEMBL1811859, “Second-generation sulfonamide inhibitors of D-glutamic acid-adding enzyme: activity optimisation with conformationally rigid analogues of D-glutamic acid” (Eur J Med Chem, 2011) come the findings set out here.

The subject of one assay is Enterococcus faecium. The assay can be described thus: Antimicrobial activity against Enterococcus faecium ATCC 19434 by broth dilution method. Type of assay: functional. A general note: In broth dilution the organism is exposed to a series of concentrations in liquid medium.
For a further assay, the system named is Klebsiella pneumoniae. The assay can be described thus: Antimicrobial activity against Klebsiella pneumoniae ATCC 13883 by broth dilution method. Type of assay: functional.
Assay [1] deals with Streptococcus pneumoniae. The assay can be described thus: Antimicrobial activity against Streptococcus pneumoniae ATCC 33400 by broth dilution method. Type of assay: functional.
The subject of the next assay is Citrobacter freundii. The assay can be described thus: Antimicrobial activity against Citrobacter freundii ATCC 8090 by broth dilution method. Type of assay: functional.
Another assay deals with Listeria innocua. The assay can be described thus: Antimicrobial activity against Listeria innocua ATCC 33090 by broth dilution method. Type of assay: functional.
In the next assay the test system is Enterococcus hirae. The assay can be described thus: Antimicrobial activity against Enterococcus hirae ATCC 9790 by broth dilution method. Type of assay: functional.
A short description of assay [2]: Inhibition of Escherichia coli MurD ligase assessed as addition of D-[3H]glu to UDP-N-acetyl-muramoyl-L-alanine after 30 mins.
For assay [3], the system named is Staphylococcus aureus. The assay can be described thus: Antimicrobial activity against methicillin-resistant Staphylococcus aureus ATCC 43300 by broth dilution method. Type of assay: functional.
Assay [4] has as its system Enterococcus faecalis. The assay can be described thus: Antimicrobial activity against Enterococcus faecalis ATCC 29212 by broth dilution method. Type of assay: functional.
Assay [5] relates to Escherichia coli. The assay can be described thus: Antimicrobial activity against Escherichia coli ATCC 8739 by broth dilution method. Type of assay: functional.
In the next assay the test system is Proteus mirabilis. The assay can be described thus: Antimicrobial activity against Proteus mirabilis ATCC 29936 by broth dilution method. Type of assay: functional.
In assay [6] the test system is Escherichia coli. The assay can be described thus: Inhibition of Escherichia coli MurD ligase assessed as residual activity at 1 mM after 30 mins.
The next assay has as its system Bacillus subtilis. The assay can be described thus: Antimicrobial activity against Bacillus subtilis ATCC 6633 by broth dilution method. Type of assay: functional.
In assay [7] the test system is Staphylococcus aureus. The assay can be described thus: Antimicrobial activity against Staphylococcus aureus ATCC 25923 by broth dilution method. Type of assay: functional.
Assay [8] relates to Streptococcus pneumoniae. The assay can be described thus: Antimicrobial activity against Streptococcus pneumoniae ATCC 49619 by broth dilution method. Type of assay: functional.
The test system of the next assay is Listeria monocytogenes. The assay can be described thus: Antimicrobial activity against Listeria monocytogenes ATCC 14780 by broth dilution method. Type of assay: functional.
For the next assay, the system named is Pseudomonas aeruginosa. The assay can be described thus: Antimicrobial activity against Pseudomonas aeruginosa ATCC 27853 by broth dilution method. Type of assay: functional.
Assay [9] relates to Staphylococcus epidermidis. The assay can be described thus: Antimicrobial activity against Staphylococcus epidermidis ATCC 12228 by broth dilution method. Type of assay: functional.
Assay [10] relates to Staphylococcus aureus. The assay can be described thus: Antimicrobial activity against methicillin-resistant Staphylococcus aureus PL1 by broth dilution method. Type of assay: functional.
Another assay concerns Micrococcus luteus. The assay can be described thus: Antimicrobial activity against Micrococcus luteus ATCC 9314 by broth dilution method. Type of assay: functional.
In assay [11] the test system is Streptococcus pneumoniae. The assay can be described thus: Antimicrobial activity against Streptococcus pneumoniae D39 by broth dilution method. Type of assay: functional.
Assay [12] deals with Enterococcus faecalis. The assay can be described thus: Antimicrobial activity against Enterococcus faecalis ATCC 19433 by broth dilution method. Type of assay: functional.

Each structure is given as a SMILES string. Values after ≈ are worked out from the molar mass of the structure shown.

Take `N#Cc1ccc(COc2ccc3cc(S(=O)(=O)Nc4cc(C(=O)O)ccc4C(=O)O)ccc3c2)c(F)c1`: the minimum inhibitory concentration (MIC) against Enterococcus faecium, in the assay on Klebsiella pneumoniae, against Streptococcus pneumoniae [1], with Citrobacter freundii, in the assay on Listeria innocua and with Enterococcus hirae was over 512 mg/L in each case. Also, the MIC in the assay with Staphylococcus aureus [3], in the assay with Enterococcus faecalis [4], with Escherichia coli [5], with Proteus mirabilis, in the assay with Bacillus subtilis and against Staphylococcus aureus [7] was over 512 mg/L in each case. For the same compound, the minimal inhibitory concentration (MIC) (against Streptococcus pneumoniae [8]; against Listeria monocytogenes; with Pseudomonas aeruginosa; in assay [9]; with Staphylococcus aureus [10]; against Micrococcus luteus) was over 512 mg/L each time. Also, the MIC with Streptococcus pneumoniae [11] and in the assay on Enterococcus faecalis [12] was over 512 mg/L each time. The IC50 (commonly the concentration at which inhibition is half-maximal) in assay [2] amounted to 38 µM. The Ki (as a rule, a dissociation constant, usually derived from enzyme kinetics or from competition with a known ligand) in assay [2] came to 26 µM. In the assay on Escherichia coli [6], the Activity came out at 2%.
For the compound `CCCCOc1ccc2cc(S(=O)(=O)NC3CCC(C(=O)O)CC3C(=O)O)ccc2c1` (racemic), the MIC – broadly, the smallest concentration in the dilution series that meets the test's criterion for growth inhibition – against Enterococcus faecium is 128 mg/L (≈ 285 µM); against Klebsiella pneumoniae it was over 512 mg/L; against Streptococcus pneumoniae [1], 64 mg/L (≈ 142 µM); with Citrobacter freundii, over 512 mg/L; against Listeria innocua it was 32 mg/L (≈ 71.2 µM); in the assay on Enterococcus hirae, 32 mg/L (≈ 71.2 µM). The minimum inhibitory concentration (MIC) was 128 mg/L (≈ 285 µM) against Staphylococcus aureus [3]; 256 mg/L (≈ 569 µM) against Enterococcus faecalis [4]; over 512 mg/L against Escherichia coli [5]; over 512 mg/L against Proteus mirabilis; 64 mg/L (≈ 142 µM) in the assay on Bacillus subtilis; 128 mg/L (≈ 285 µM) against Staphylococcus aureus [7]. For the same compound, the MIC is 64 mg/L (≈ 142 µM) against Streptococcus pneumoniae [8]; 32 mg/L (≈ 71.2 µM) against Listeria monocytogenes; over 512 mg/L against Pseudomonas aeruginosa; 128 mg/L (≈ 285 µM) in assay [9]; 32 mg/L (≈ 71.2 µM) against Staphylococcus aureus [10]; over 512 mg/L in the assay with Micrococcus luteus. Also, the MIC with Streptococcus pneumoniae [11] turned out to be 64 mg/L (≈ 142 µM); against Enterococcus faecalis [12], 128 mg/L (≈ 285 µM). The Activity with Escherichia coli [6] was determined as 89%.
With `N#Cc1ccc(COc2ccc3cc(S(=O)(=O)N[C@@H]4CCCC[C@H]4C(=O)O)ccc3c2)c(F)c1`, the MIC in the assay with Enterococcus faecium, against Klebsiella pneumoniae, against Streptococcus pneumoniae [1], against Citrobacter freundii, against Listeria innocua and against Enterococcus hirae was over 512 mg/L in each case. For the same compound, the MIC in the assay with Staphylococcus aureus [3], against Enterococcus faecalis [4], with Escherichia coli [5], in the assay on Proteus mirabilis, in the assay with Bacillus subtilis and with Staphylococcus aureus [7] was over 512 mg/L each time. The minimum inhibitory concentration (MIC) (in the assay on Streptococcus pneumoniae [8]; against Listeria monocytogenes; against Pseudomonas aeruginosa; in [9]; in the assay with Staphylococcus aureus [10]; against Micrococcus luteus) was over 512 mg/L in each case. Further, the MIC against Streptococcus pneumoniae [11] and with Enterococcus faecalis [12] was over 512 mg/L in each case. In the assay on Escherichia coli [6], the Activity stood at 88%.
For `N#Cc1ccc(COc2ccc3cc(S(=O)(=O)NC4CCC(C(=O)O)CC4C(=O)O)ccc3c2)c(F)c1` (racemic), the MIC against Enterococcus faecium, against Klebsiella pneumoniae, in the assay on Streptococcus pneumoniae [1], against Citrobacter freundii, against Listeria innocua and in the assay on Enterococcus hirae was over 512 mg/L in each case. For the same compound, the MIC in the assay on Staphylococcus aureus [3], in the assay with Enterococcus faecalis [4], with Escherichia coli [5], with Proteus mirabilis, against Bacillus subtilis and against Staphylococcus aureus [7] was over 512 mg/L throughout. Besides, the MIC (in the assay with Streptococcus pneumoniae [8]; against Listeria monocytogenes; against Pseudomonas aeruginosa; in assay [9]; against Staphylococcus aureus [10]; in the assay with Micrococcus luteus) was over 512 mg/L in each case. The minimum inhibitory concentration (MIC) in the assay with Streptococcus pneumoniae [11] and with Enterococcus faecalis [12] was over 512 mg/L each time. In the assay on Escherichia coli [6], the Activity was found to be 14%.
For the compound `N#Cc1ccc(COc2ccc3cc(S(=O)(=O)N[C@H]4CCCC[C@H]4C(=O)O)ccc3c2)c(F)c1`, the minimum inhibitory concentration (MIC) with Enterococcus faecium is 256 mg/L (≈ 531 µM); against Klebsiella pneumoniae, over 512 mg/L; in the assay with Streptococcus pneumoniae [1], over 512 mg/L; in the assay with Citrobacter freundii it was over 512 mg/L; against Listeria innocua, over 512 mg/L; against Enterococcus hirae, over 512 mg/L. Further, the minimal inhibitory concentration (MIC) in the assay on Staphylococcus aureus [3] is 256 mg/L (≈ 531 µM); with Enterococcus faecalis [4] it was over 512 mg/L; against Escherichia coli [5], over 512 mg/L; against Proteus mirabilis, over 512 mg/L; in the assay with Bacillus subtilis, over 512 mg/L; in the assay on Staphylococcus aureus [7], 256 mg/L (≈ 531 µM). Besides, the MIC is over 512 mg/L in the assay with Streptococcus pneumoniae [8]; over 512 mg/L in the assay with Listeria monocytogenes; over 512 mg/L against Pseudomonas aeruginosa; 256 mg/L (≈ 531 µM) in assay [9]; 256 mg/L (≈ 531 µM) in the assay on Staphylococcus aureus [10]; over 512 mg/L in the assay with Micrococcus luteus. The MIC in the assay with Streptococcus pneumoniae [11] and in the assay on Enterococcus faecalis [12] was over 512 mg/L throughout. The Activity with Escherichia coli [6] came out at 45%.
Regarding `CCCCOc1ccc2cc(S(=O)(=O)N[C@H](CCC(=O)O)C(=O)O)ccc2c1`, in assay [2], the IC50 was 280 µM and the Ki was 192 µM.
With `CCCCOc1ccc2cc(S(=O)(=O)N[C@H]3CCCC[C@H]3C(=O)O)ccc2c1`, the MIC in the assay on Enterococcus faecium is 256 mg/L (≈ 631 µM); in the assay with Klebsiella pneumoniae, over 512 mg/L; against Streptococcus pneumoniae [1], 64 mg/L (≈ 158 µM); in the assay on Citrobacter freundii it was over 512 mg/L; in the assay on Listeria innocua, 32 mg/L (≈ 78.9 µM); against Enterococcus hirae, 64 mg/L (≈ 158 µM). The minimal inhibitory concentration (MIC) against Staphylococcus aureus [3] was 128 mg/L (≈ 316 µM); against Enterococcus faecalis [4] it was 256 mg/L (≈ 631 µM); in the assay with Escherichia coli [5], over 512 mg/L; in the assay on Proteus mirabilis it was over 512 mg/L; in the assay on Bacillus subtilis, 64 mg/L (≈ 158 µM); against Staphylococcus aureus [7], 256 mg/L (≈ 631 µM). Also, the minimal inhibitory concentration (MIC) was 64 mg/L (≈ 158 µM) in the assay on Streptococcus pneumoniae [8]; 32 mg/L (≈ 78.9 µM) in the assay with Listeria monocytogenes; over 512 mg/L against Pseudomonas aeruginosa; 256 mg/L (≈ 631 µM) in assay [9]; 128 mg/L (≈ 316 µM) with Staphylococcus aureus [10]; over 512 mg/L against Micrococcus luteus. For the same compound, the MIC in the assay with Streptococcus pneumoniae [11] is 64 mg/L (≈ 158 µM); in the assay with Enterococcus faecalis [12], 512 mg/L (≈ 1260 µM). The Activity in the assay with Escherichia coli [6] was 93%.
As for `CCCCOc1ccc2cc(S(=O)(=O)N[C@@H]3CCCC[C@H]3C(=O)O)ccc2c1`, the minimal inhibitory concentration (MIC) against Enterococcus faecium is 256 mg/L (≈ 631 µM); against Klebsiella pneumoniae it was over 512 mg/L; in the assay with Streptococcus pneumoniae [1], 64 mg/L (≈ 158 µM); in the assay on Citrobacter freundii it was over 512 mg/L; in the assay with Listeria innocua, 32 mg/L (≈ 78.9 µM); in the assay with Enterococcus hirae, 64 mg/L (≈ 158 µM). In addition, the MIC against Staphylococcus aureus [3] is 256 mg/L (≈ 631 µM); with Enterococcus faecalis [4] it was 256 mg/L (≈ 631 µM); with Escherichia coli [5], over 512 mg/L; against Proteus mirabilis, over 512 mg/L; in the assay with Bacillus subtilis it was 64 mg/L (≈ 158 µM); with Staphylococcus aureus [7] it was 256 mg/L (≈ 631 µM). Moreover, the MIC in the assay with Streptococcus pneumoniae [8] was 64 mg/L (≈ 158 µM); with Listeria monocytogenes, 32 mg/L (≈ 78.9 µM); against Pseudomonas aeruginosa it was over 512 mg/L; in assay [9], 256 mg/L (≈ 631 µM); with Staphylococcus aureus [10], 256 mg/L (≈ 631 µM); with Micrococcus luteus it was over 512 mg/L. The minimal inhibitory concentration (MIC) came out at 64 mg/L (≈ 158 µM) with Streptococcus pneumoniae [11] and 512 mg/L (≈ 1260 µM) with Enterococcus faecalis [12]. Moreover, the Activity in the assay with Escherichia coli [6] came out at 100%.
As for `N#Cc1ccc(COc2ccc3cc(S(=O)(=O)N[C@H](CCC(=O)O)C(=O)O)ccc3c2)c(F)c1`, in assay [2], the Ki came to 58 µM.
